Assay [1] deals with animal model of severe sepsis. The settings on record: co-administration, mice; cited from earlier work.
Another assay has as its target T1, P2X7 (Homo sapiens, UniProt Q99572).
T1 construct: host or cells: astrocytoma cell line (the earlier reading names it 1321N1)
T1 sequence (Q99572 1-595): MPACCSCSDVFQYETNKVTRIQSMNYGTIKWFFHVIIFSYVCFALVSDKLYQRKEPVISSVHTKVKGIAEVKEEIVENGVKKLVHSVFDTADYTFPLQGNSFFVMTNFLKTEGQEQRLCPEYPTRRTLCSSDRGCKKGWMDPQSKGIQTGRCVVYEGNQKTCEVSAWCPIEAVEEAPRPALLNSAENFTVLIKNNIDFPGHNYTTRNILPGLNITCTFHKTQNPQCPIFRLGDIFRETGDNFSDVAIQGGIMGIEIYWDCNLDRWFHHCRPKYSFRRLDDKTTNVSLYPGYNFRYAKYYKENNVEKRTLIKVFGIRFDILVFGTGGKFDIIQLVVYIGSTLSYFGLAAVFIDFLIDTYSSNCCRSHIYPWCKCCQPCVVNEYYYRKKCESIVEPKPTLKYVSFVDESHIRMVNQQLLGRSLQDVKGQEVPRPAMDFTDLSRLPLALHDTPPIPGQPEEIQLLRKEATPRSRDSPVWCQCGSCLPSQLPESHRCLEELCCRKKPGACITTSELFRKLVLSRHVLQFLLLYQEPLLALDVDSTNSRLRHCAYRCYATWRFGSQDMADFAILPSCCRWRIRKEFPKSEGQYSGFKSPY
In words: YO-PRO-1 plate assay of P2X7 agonists with astrocytoma cell line 1321N1.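 On all read-outs here: dye uptake read after 20 min agonist exposure with YO-PRO-1 present, unbound dye removed by washing before reading in a fluorescence plate reader.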 In kind it is cell-based. The settings on record: for YO-PRO-1 fluorescence (485/20, 528/20), single well: 5 × 10^4 1321N1 cells; for YO-PRO-1 fluorescence, average of duplicate wells: 1321N1 cells.

The text below walks through data of patent publication US7960131B2, “Functional genomic pore assay for mixed cell populations” (Wisconsin Alumni Research Foundation, priority 2003, dated 2011).

Structures are written as SMILES. “And” between values parts separate entries of the source, which are not always exact repeats. Identical values can stand only once.

Turning to `CSc1nc(N)c2ncn([C@@H]3O[C@H](COP(=O)(O)OP(=O)(O)OP(=O)(O)O)[C@@H](O)[C@H]3O)c2n1` [2MeSATP, 2-methylthio-adenosine 5′-triphosphate], the “LPS-induced serum levels of TNF-alpha and IL-1” value in assay [1] is “reductions in LPS-induced serum levels of TNF-alpha and IL-1”. Also, the “protection from endotoxic death” value in assay [1] is recorded as “protects mice from endotoxic death”. Besides, the “YO-PRO-1 fluorescence (485/20, 528/20), single well” value (“YO-PRO-1 fluorescence … single well” below) at P2X7 (agent 3 μM + YOPRO) is 109 and 102; at P2X7 (agent 10 μM + YOPRO) it was 144; on P2X7 (agent 30 μM + YOPRO), 157 and 154; at P2X7 (agent 100 μM + YOPRO) it was 155 and 170; at P2X7 (agent 300 μM + YOPRO) it was 168 and 162; at P2X7 (agent 1 mM + YOPRO), 161 and 164. Besides, the “YO-PRO-1 fluorescence, average of duplicate wells” value (“YO-PRO-1 fluorescence, average” for short) is 105.5 on P2X7 (1 uM, agent + YOPRO) and 144 at P2X7 (3 uM, agent + YOPRO).
As to `Nc1ncnc2c1ncn2[C@@H]1O[C@H](COP(=O)(O)OP(=O)(O)NP(=O)(O)O)[C@@H](O)[C@H]1O` [AMPPNP, adenosine 5′(beta,gamma-imido)triphosphate], at P2X7 (agent 300 μM + YOPRO), the “YO-PRO-1 fluorescence … single well” value was 75 and 86.
Regarding `CN([C@@H](Cc1ccc(OS(=O)(=O)c2cccc3cnccc23)cc1)C(=O)N1CCN(c2ccccc2)CC1)S(=O)(=O)c1cccc2cnccc12` [KN62], the “YO-PRO-1 fluorescence … single well” value was 185 and 177 on P2X7 (1 mM ATP + KN62 1 μM + YOPRO); 181 and 176 at P2X7 (1 mM ATP + KN62 3 μM + YOPRO); 159 at P2X7 (1 mM ATP + KN62 10 μM + YOPRO); 155 and 153 on P2X7 (1 mM ATP + KN62 30 μM + YOPRO); 148 on P2X7 (1 mM ATP + KN62 100 μM + YOPRO); 152 and 165 at P2X7 (1 mM ATP + KN62 300 μM + YOPRO). Moreover, the “YO-PRO-1 fluorescence, average” value on P2X7 (1 mM ATP + KN62 1 uM + YOPRO) was determined as 181; at P2X7 (1 mM ATP + KN62 3 uM + YOPRO), 178.5.
As to `Nc1ncnc2c1ncn2[C@@H]1O[C@H](COP(=O)(O)CP(=O)(O)OP(=O)(O)O)[C@@H](O)[C@H]1O` [ab-CH2-ATP], the “YO-PRO-1 fluorescence … single well” value is 68 and 67 on P2X7 (agent 1 μM + YOPRO); 68 and 69 on P2X7 (agent 3 μM + YOPRO); 74 on P2X7 (agent 10 μM + YOPRO); 74 and 78 at P2X7 (agent 30 μM + YOPRO); 89 and 83 on P2X7 (agent 100 μM + YOPRO); 101 and 116 at P2X7 (agent 300 μM + YOPRO). Moreover, the “YO-PRO-1 fluorescence, average” value is recorded as 67.5 at P2X7 (1 uM, agent + YOPRO) and 68.5 on P2X7 (3 uM, agent + YOPRO).
As to `O=c1ccn([C@@H]2O[C@H](COP(=O)(O)OP(=O)(O)OP(=O)(O)O)[C@@H](O)[C@H]2O)c(=O)[nH]1` [UTP], the “YO-PRO-1 fluorescence … single well” value at P2X7 (agent 300 μM + YOPRO) is 72 and 73.
